Source: patent US9896441B2 (Lycera Corporation, priority 2014, dated 2018)

Assays:
RORγ-LBD = target: T1, RORγ-LBD (Homo sapiens, UniProt P51449); experiment: RORγ-Ligand Binding Domain (LBD) TR-FRET Assay; format: biochemical; conditions: for TR-FRET Assay Max Response: maximum response;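 as to TR-FRET Assay Max Response: 665/615 nm signal ratio set to 100 without ursolic acid or test compound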
T1 construct: made in house; host or cells: SF9 cells (baculovirus); used as diluted lysate
T1 sequence (P51449 269-508 limits assumed): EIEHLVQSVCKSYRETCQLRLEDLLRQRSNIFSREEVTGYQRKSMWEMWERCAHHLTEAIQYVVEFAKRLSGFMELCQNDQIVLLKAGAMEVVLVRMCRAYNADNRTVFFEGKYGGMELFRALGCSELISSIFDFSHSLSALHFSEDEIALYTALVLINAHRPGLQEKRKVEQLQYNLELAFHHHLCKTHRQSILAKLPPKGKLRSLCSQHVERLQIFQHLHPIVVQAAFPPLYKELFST
In short: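 TR-FRET read-out using a biotin-tagged SRC1 coactivator LXXLL peptide (200 nM final), with the antagonist ursolic acid present at 2 μM final. Receptor is His-tagged LBD expressed in SF9 cells, ~3 nM final in pH 7.0 Tris/KCl/EDTA/DTT/BSA buffer; compounds in 1% DMSO final.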

Gal4-RORγ-LBD = target: T2, Gal4-RORγ-LBD (Homo sapiens, UniProt P51449); experiment: Gal4-RORγ Luciferase Reporter Assay in HEK-293T Cells; format: cell-based; conditions: HEK-293 cells; for Gal4-RORγ Assay Max Response: maximum response
T2 construct: expressed in transfected cells
T2 sequence (P51449 269-508 limits assumed): T1 sequence (P51449 269-508 limits assumed)
In short: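 Max Response was taken as the upper plateau of a 4-parameter logistic fit of luciferase signal, normalized to 100 for wells without ursolic acid or compound. Transiently Gal4-RORγ-LBD/Gal4-luc transfected HEK-293 cells carrying […] ursolic acid were incubated with test compounds (0.2% DMSO) overnight at 37 °C and read with One-Glo.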

[1] = luciferase reporter, with ursolic acid
[2] = luciferase reporter, in presence of ursolic acid
[3] = with 2 μM ursolic acid (RORγ antagonist), highest test concentration 10 μM
[4] = ursolic acid present, luciferase readout

Structure (SMILES): CCOc1nn(CC)cc1S(=O)(=O)N1C[C@H](CCC(=O)O)Oc2ccc(/C=C/c3ccsc3)cc21 [Example 89K, (S,E)-3-(4-((3-ethoxy-1-ethyl-1H-pyrazol-4-yl)sulfonyl)-6-(2-(thiophen-3-yl)vinyl)-3,4-dihydro-2H-benzo[b][1,4]oxazin-2-yl)propanoic acid]
- EC50 (RORγ-LBD; RORγ-LBD TR-FRET): < 500 nM
- EC50 (Gal4-RORγ-LBD; [1]): 500 to 5000 nM

Structure (SMILES): CCOc1nn(CC)cc1S(=O)(=O)N1C[C@H](CCC(=O)O)Oc2ccc(/C=C/c3c(Cl)cccc3C(F)F)cc21 [Example 89EH, (S,E)-3-(6-(2-chloro-6-(difluoromethyl)styryl)-4-((3-ethoxy-1-ethyl-1H-pyrazol-4-yl)sulfonyl)-3,4-dihydro-2H-benzo[b][1,4]oxazin-2-yl)propanoic acid]
- EC50 (RORγ-LBD; RORγ-LBD TR-FRET): < 500 nM
- EC50 (Gal4-RORγ-LBD; [1]): < 500 nM

Structure (SMILES): CC(C)=Cc1ccc2c(c1)N(S(=O)(=O)c1cccc(C(F)(F)F)c1)C[C@H](CCC(=O)O)O2 [Example 95AB, (S)-3-(6-(2-methylprop-1-en-1-yl)-4-((3-(trifluoromethyl)-phenyl)sulfonyl)-3,4-dihydro-2H-benzo[b][1,4]oxazin-2-yl)propanoic acid]
- EC50 (RORγ-LBD; RORγ-LBD TR-FRET): < 500 nM
- EC50 (Gal4-RORγ-LBD; [1]): 500 to 5000 nM

Structure (SMILES): O=C(O)CC[C@H]1CN(S(=O)(=O)c2cccc(C(F)(F)F)c2)c2cc(C=C3CCC(O)CC3)ccc2O1 (stereo partly drawn) [Example 94]
- EC50 (RORγ-LBD; RORγ-LBD TR-FRET): < 500 nM
- EC50 (Gal4-RORγ-LBD; [1]): 500 to 5000 nM

Structure (SMILES): O=C(CC[C@H]1CN(S(=O)(=O)c2cccc(C(F)(F)F)c2)c2cc(/C=C/c3c(Cl)cccc3C(F)(F)F)ccc2O1)N1CC2(COC2)C1 [Example 127G, (S,E)-3-(6-(2-chloro-6-(trifluoromethyl)styryl)-4-((3-(trifluoromethyl)-phenyl)sulfonyl)-3,4-dihydro-2H-benzo[b][1,4]oxazin-2-yl)-1-(2-oxa-6-azaspiro[3.3]heptan-6-yl)propan-1-one]
- EC50 (RORγ-LBD; RORγ-LBD TR-FRET assay): < 500 nM
- TR-FRET Assay Max Response (RORγ-LBD; RORγ-LBD TR-FRET assay): **** (a value greater than 200)
- EC50 (Gal4-RORγ-LBD; [2]): 500 to 5000 nM
- Gal4-RORγ Assay Max Response (Gal4-RORγ-LBD; [2]): * (a value in the range of 30 to 90)

Structure (SMILES): COC(=O)c1ccc(C(=O)NC[C@H]2CN(S(=O)(=O)c3ccc(F)c(OC)c3)c3cc(/C=C(\C)c4c(F)cccc4Cl)ccc3O2)cc1 [Example 133, Methyl (S,E)-4-(((6-(2-(2-chloro-6-fluorophenyl)prop-1-en-1-yl)-4-((4-fluoro-3-methoxyphenyl)sulfonyl)-3,4-dihydro-2H-benzo[b][1,4]oxazin-2-yl)methyl)carbamoyl)benzoate]
- EC50 (RORγ-LBD; RORγ-LBD TR-FRET assay): < 500 nM
- TR-FRET Assay Max Response (RORγ-LBD; RORγ-LBD TR-FRET assay): **** (a value greater than 200)
- EC50 (Gal4-RORγ-LBD; [2]): < 500 nM
- Gal4-RORγ Assay Max Response (Gal4-RORγ-LBD; [2]): * (a value in the range of 30 to 90)

Structure (SMILES): C/C(=C\c1ccc2c(c1)N(S(=O)(=O)c1ccc(F)c(C3CC3)c1)C[C@H](CCC(=O)O)O2)c1c(F)cccc1Cl [Example 86C, (S,E)-3-(6-(2-(2-chloro-6-fluorophenyl)prop-1-en-1-yl)-4-((3-cyclopropyl-4-fluorophenyl)-sulfonyl)-3,4-dihydro-2H-benzo[b][1,4]oxazin-2-yl)-propanoic acid]
- EC50 (RORγ-LBD; RORγ-LBD TR-FRET): < 500 nM
- EC50 (Gal4-RORγ-LBD; [1]): < 500 nM

Structure (SMILES): C/C(=C\c1cc(F)c2c(c1)N(S(=O)(=O)c1cccc(OC(F)F)c1)C[C@H](CCC(=O)O)O2)c1c(F)cccc1Cl [Example 52, (S,E)-3-(6-(2-(2-Chloro-6-fluorophenyl)prop-1-en-1-yl)-4-((3-(difluoromethoxy)phenyl)sulfonyl)-8-fluoro-3,4-dihydro-2H-benzo[b][1,4]oxazin-2-yl)propanoic acid]
- EC50 (RORγ-LBD; RORγ-LBD TR-FRET): < 500 nM
- EC50 (Gal4-RORγ-LBD; [1]): 500 to 5000 nM

Structure (SMILES): O=C(O)CC[C@H]1CN(S(=O)(=O)c2cn(C3CC3)nc2OCCO)c2cc(/C=C/c3c(Cl)cccc3C(F)(F)F)ccc2O1 [Example 89EG, (S,E)-3-(6-(2-chloro-6-(trifluoromethyl)styryl)-4-((1-cyclopropyl-3-(2-hydroxyethoxy)-1H-pyrazol-4-yl)sulfonyl)-3,4-dihydro-2H-benzo[b][1,4]oxazin-2-yl)propanoic acid]
- EC50 (RORγ-LBD; RORγ-LBD TR-FRET): < 500 nM
- EC50 (Gal4-RORγ-LBD; [1]): 500 to 5000 nM

Structure (SMILES): COC(=O)CC[C@H]1CN(S(=O)(=O)c2cccc(OC(F)F)c2)c2c(ccc(/C=C(\C)c3c(F)cccc3Cl)c2C)O1 [Example 59, Methyl (S,E)-3-(6-(2-(2-chloro-6-fluorophenyl)prop-1-en-1-yl)-4-((3-(difluoromethoxy)phenyl)sulfonyl)-5-methyl-3,4-dihydro-2H-benzo[b][1,4]oxazin-2-yl)propanoate]
- EC50 (RORγ-LBD; RORγ-LBD TR-FRET): < 500 nM
- EC50 (Gal4-RORγ-LBD; [1]): 500 to 5000 nM

Structure (SMILES): O=C(O)C[C@H]1CN(S(=O)(=O)c2cccc(C(F)(F)F)c2)c2cc(COc3c(F)cccc3Cl)ccc2O1
- EC50 (RORγ-LBD; [3]): < 500 nM
- EC50 (Gal4-RORγ-LBD; [4]): 500 to 5000 nM

Structure (SMILES): Cc1cccc2c1c(/C=C/c1ccc3c(c1)N(S(=O)(=O)c1cccc(C(F)(F)F)c1)C[C@H](CCC(=O)O)O3)nn2C [Example 89BN, (S,E)-3-(6-(2-(1,4-dimethyl-1H-indazol-3-yl)vinyl)-4-((3-(trifluoromethyl)phenyl)sulfonyl)-3,4-dihydro-2H-benzo[b][1,4]oxazin-2-yl)propanoic acid]
- EC50 (RORγ-LBD; RORγ-LBD TR-FRET): < 500 nM
- EC50 (Gal4-RORγ-LBD; [1]): 500 to 5000 nM

Structure (SMILES): O=C(O)CC[C@H]1CN(S(=O)(=O)c2cccc(C(F)(F)F)c2)c2cc(/C=C/c3c(Cl)cccc3C(F)F)ccc2O1 [Example 89EN, (S,E)-3-(6-(2-chloro-6-(difluoromethyl)styryl)-4-((3-(trifluoromethyl)phenyl)sulfonyl)-3,4-dihydro-2H-benzo[b][1,4]oxazin-2-yl)propanoic acid]
- EC50 (RORγ-LBD; RORγ-LBD TR-FRET): < 500 nM
- EC50 (Gal4-RORγ-LBD; [1]): < 500 nM

Structure (SMILES): C/C(=C\c1ccc2c(c1)N(S(=O)(=O)c1cccc(C(F)(F)F)c1)C[C@H](CCN1CCC(O)C1)O2)c1c(F)cccc1Cl (stereo partly drawn) [Example 119C, 1-(2-((S)-6-((E)-2-(2-chloro-6-fluorophenyl)prop-1-en-1-yl)-4-((3-(trifluoromethyl)-phenyl)sulfonyl)-3,4-dihydro-2H-benzo[b][1,4]oxazin-2-yl)ethyl)pyrrolidin-3-ol]
- EC50 (RORγ-LBD; RORγ-LBD TR-FRET assay): < 500 nM
- TR-FRET Assay Max Response (RORγ-LBD; RORγ-LBD TR-FRET assay): *** (a value in the range of greater than 150 to 200)
- EC50 (Gal4-RORγ-LBD; [2]): 500 to 5000 nM
- Gal4-RORγ Assay Max Response (Gal4-RORγ-LBD; [2]): ** (a value in the range of greater than 90 to 150)

Structure (SMILES): C/C(=C\c1ccc2c(c1)N(S(=O)(=O)c1cccc(C(F)(F)F)c1)C[C@H](NS(C)(=O)=O)C2)c1c(F)cccc1Cl [Example 116H, (R,E)-N-(7-(2-(2-chloro-6-fluorophenyl)prop-1-en-1-yl)-1-((3-(trifluoromethyl)phenyl)-sulfonyl)-1,2,3,4-tetra-hydroquinolin-3-yl)methanesulfonamide]
- EC50 (RORγ-LBD; RORγ-LBD TR-FRET assay): < 500 nM
- TR-FRET Assay Max Response (RORγ-LBD; RORγ-LBD TR-FRET assay): *** (a value in the range of greater than 150 to 200)
- EC50 (Gal4-RORγ-LBD; [2]): < 500 nM
- Gal4-RORγ Assay Max Response (Gal4-RORγ-LBD; [2]): ** (a value in the range of greater than 90 to 150)

Structure (SMILES): CCn1cc(S(=O)(=O)N2C[C@H]([C@@H](C)NS(C)(=O)=O)Oc3ccc(/C=C(\C)c4c(F)cccc4Cl)cc32)c(Cl)n1 [Example 104, N—((R)-1-((R)-4-((3-Chloro-1-ethyl-1H-pyrazol-4-yl)sulfonyl)-6-((E)-2-(2-chloro-6-fluorophenyl)prop-1-en-1-yl)-3,4-dihydro-2H-benzo[b][1,4]oxazin-2-yl)ethyl)methanesulfonamide]
- EC50 (RORγ-LBD; RORγ-LBD TR-FRET assay): < 500 nM
- TR-FRET Assay Max Response (RORγ-LBD; RORγ-LBD TR-FRET assay): *** (a value in the range of greater than 150 to 200)
- EC50 (Gal4-RORγ-LBD; [2]): > 10000 nM

Structure (SMILES): C/C(=C\c1ccc2c(c1)N(S(=O)(=O)c1cccc(OC(F)(F)F)c1)C[C@H](CCC(=O)O)O2)c1c(F)cccc1Cl [Example 86S, (S,E)-3-(6-(2-(2-chloro-6-fluorophenyl)prop-1-en-1-yl)-4-((3-(trifluoromethoxy)phenyl)-sulfonyl)-3,4-dihydro-2H-benzo[b][1,4]oxazin-2-yl)propanoic acid]
- EC50 (RORγ-LBD; RORγ-LBD TR-FRET): < 500 nM
- EC50 (Gal4-RORγ-LBD; [1]): 500 to 5000 nM

Structure (SMILES): C/C(=C\c1ccc2c(c1)N(S(=O)(=O)c1cccc(C(F)(F)F)c1)C[C@H](CCC(=O)NCC(=O)O)O2)c1c(F)cccc1Cl [Example 129E, (S,E)-(3-(6-(2-(2-chloro-6-fluorophenyl)prop-1-en-1-yl)-4-((3-(trifluoro-methyl)phenyl)sulfonyl)-3,4-dihydro-2H-benzo[b][1,4]oxazin-2-yl)propanoyl)glycine]
- EC50 (RORγ-LBD; RORγ-LBD TR-FRET assay): < 500 nM
- TR-FRET Assay Max Response (RORγ-LBD; RORγ-LBD TR-FRET assay): **** (a value greater than 200)
- EC50 (Gal4-RORγ-LBD; [2]): 500 to 5000 nM
- Gal4-RORγ Assay Max Response (Gal4-RORγ-LBD; [2]): ** (a value in the range of greater than 90 to 150)

Structure (SMILES): O=C(O)CC[C@H]1CN(S(=O)(=O)c2cccc(C(F)(F)F)c2)c2cc(C3=CCCC3)ccc2O1 [Example 192, (S)-3-(6-(cyclopent-1-en-1-yl)-4-((3-(trifluoromethyl)phenyl)sulfonyl)-3,4-dihydro-2H-benzo[b][1,4]oxazin-2-yl)propanoic acid]
- EC50 (RORγ-LBD; [3]): < 500 nM
- EC50 (Gal4-RORγ-LBD; [4]): 500 to 5000 nM

Structure (SMILES): CCOc1nn(CC)cc1S(=O)(=O)N1C[C@H](CCC(=O)OC)Oc2ccc(/C=C/c3c(F)cccc3F)cc21 [Example 89AF, (S,E)-methyl 3-(6-(2,6-difluorostyryl)-4-((3-ethoxy-1-ethyl-1H-pyrazol-4-yl)sulfonyl)-3,4-dihydro-2H-benzo[b][1,4]oxazin-2-yl)propanoate]
- EC50 (RORγ-LBD; RORγ-LBD TR-FRET): < 500 nM
- EC50 (Gal4-RORγ-LBD; [1]): > 10000 nM
